Experimental data as given in PMC6941952, “A homogeneous bioluminescent immunoassay to probe cellular signaling pathway regulation” (Communications Biology, 2020).
“And” between values parts separate entries of the source, which are not always exact repeats. Identical values can stand only once. Where a SMILES comes first, the peptide text is derived from it. The star is where a group is joined. Cbz = O=C(OCc1ccccc1)*

Tests used:
[1] = tested on: total IκBα; experiment: NanoBiT cell-based immunoassay, total IκBα in MCF-7 cells; set-up: species or system human; details: for Total IkB Average: background subtracted
Experimental: Prior to NanoBiT Cell-Based Immunoassay, 50,000 cells were seeded in 160 µl of complete growth media per well of a 96-well plate and incubated overnight. […] If necessary, the cell culture media were replaced with serum-free media after the cells were stably adherent on the plate and incubated overnight. To treat cells with activators or inhibitors, medium was changed to 30 µl of medium containing inhibitors. If activation of a specific pathway is needed, the cells were stimulated with 10 µl of medium containing activators. To lyse the cells, 10 µl of lysis buffer containing 0.1% digitonin diluted in 1X immunoassay buffer with protease and phosphatase inhibitors was added and the plates were mixed vigorously for 20 min. Then, 50 µl of an antibody mix containing two primary antibodies against the target protein and NanoBiT detecting antibodies (0.3 µl each per well), diluted in 1X immunoassay buffer was added to the lysates. The plates were incubated at 23 °C for 90 min, followed by the addition of 25 µl of Nano-Glo® reagent consisting of Nano-Glo® Luciferase Assay Substrate mixed with 1X immunoassay buffer. Luminescence was measured using a plate-reading luminometer.
Single dose or dose response inhibitor treatments were performed prior to activation of the pathways as follows. For IκBα, the cells were treated in 30 µl medium with IKK16 or MG132 for 60 min before the addition of 10 µl of DMEM containing appropriate concentration of TNFα. To measure phosphorylation of AKT or STAT3, the corresponding NanoBiT immunoassays were developed with MCF-7 or A431 cells, respectively, according the same scheme used to develop the IκBα assay using the primary antibodies for AKT and STAT3 described in the reagents section. […] Treatment with LY294002 was performed in 30 µl medium and cells were incubated for 60 min before the addition of 1 µM Insulin. To measure STAT3 phosphorylation, A431 cells were incubated overnight in DMEM medium without serum. […] After addition of the stimulators, the cells were incubated for additional times as follows. IκBα phosphorylation and degradation analyses required both time courses and single time points as described in figures. […] The NanoBiT immunoassay protocol was followed as described above.
(§1) All 96-well assay plates were read using a GloMax® 96 Microplate Luminometer from Promega. The instrument was set to 0.5 s integration time. In order to obtain net change of signal, the reagent background values (signal from the well containing all reagent except primary antibodies) were subtracted from the sample values. To plot and analyze the data, Microsoft Excel and GraphPad Prism® Software were used. IC50 values were determined by using a nonlinear regression fit to a sigmoidal dose response (variable slope).

[2] = tested on: phospho-IκBα (Ser32); experiment: NanoBiT cell-based immunoassay, phosphorylated IκBα in MCF-7 cells; set-up: species or system human; details: for P-IkB Average: background subtracted
Experimental: Prior to NanoBiT Cell-Based Immunoassay, 50,000 cells were seeded in 160 µl of complete growth media per well of a 96-well plate and incubated overnight. The cells were checked under microscope and it was determined that 50,000 cells per well in 96-well plate is under 90% confluency for all cells tested. If necessary, the cell culture media were replaced with serum-free media after the cells were stably adherent on the plate and incubated overnight. To treat cells with activators or inhibitors, medium was changed to 30 µl of medium containing inhibitors. If activation of a specific pathway is needed, the cells were stimulated with 10 µl of medium containing activators. To lyse the cells, 10 µl of lysis buffer containing 0.1% digitonin diluted in 1X immunoassay buffer with protease and phosphatase inhibitors was added and the plates were mixed vigorously for 20 min. Then, 50 µl of an antibody mix containing two primary antibodies against the target protein and NanoBiT detecting antibodies (0.3 µl each per well), diluted in 1X immunoassay buffer was added to the lysates. The plates were incubated at 23 °C for 90 min, followed by the addition of 25 µl of Nano-Glo® reagent consisting of Nano-Glo® Luciferase Assay Substrate mixed with 1X immunoassay buffer. Luminescence was measured using a plate-reading luminometer.
In all, 50,000 MCF-7 cells were seeded in 160 µl complete growth medium per well of a 96-well plate and incubated overnight. Half of the cells were treated with 50 ng per ml TNFα and half with vehicle. Cells were lysed as described above and a mixture of NanoBiT secondary antibodies with primary antibodies at the matrix concentrations described in Fig. 2a were added. After 90 min incubation, the Nano-Glo® reagent was added to the reactions as described above and luminescence was measured using a plate-reading luminometer.
Single dose or dose response inhibitor treatments were performed prior to activation of the pathways as follows. For IκBα, the cells were treated in 30 µl medium with IKK16 or MG132 for 60 min before the addition of 10 µl of DMEM containing appropriate concentration of TNFα. To measure phosphorylation of AKT or STAT3, the corresponding NanoBiT immunoassays were developed with MCF-7 or A431 cells, respectively, according the same scheme used to develop the IκBα assay using the primary antibodies for AKT and STAT3 described in the reagents section. For the AKT assay, MCF-7 cells were incubated overnight in phenol-red free DMEM medium (Gibco #21063-029) without serum. Treatment with LY294002 was performed in 30 µl medium and cells were incubated for 60 min before the addition of 1 µM Insulin. To measure STAT3 phosphorylation, A431 cells were incubated overnight in DMEM medium without serum. […] After addition of the stimulators, the cells were incubated for additional times as follows. IκBα phosphorylation and degradation analyses required both time courses and single time points as described in figures. […] The NanoBiT immunoassay protocol was followed as described above.
as §1

C[C@@H]1C[C@@H]([C@H](O)CC2CC(=O)NC(=O)C2)C(=O)[C@@H](C)C1 [cycloheximide]
IκBα after the degradation phase (de novo synthesis) ([1]; MCF-7 cells, TNFα 50 ng per ml, 20 µg per ml added after 30 min): not detected

CC(C)C[C@@H](C=O)NC(=O)[C@H](CC(C)C)NC(=O)[C@H](CC(C)C)NC(=O)OCc1ccccc1 [MG132] (Cbz-Leu-Leu-Leu-aldehyde)
P-IkB Raw data ([2]; MG132, TNF 0 min): 22120 and 22340 and 21000 and 22420 | P-IkB Subtract reagent background ([2]; MG132, TNF 0 min): 5850 and 5550 and 5770 and 4430 | P-IkB Average ([2]; MG132, TNF 0 min): 5400 | P-IkB Raw data ([2]; MG132, TNF 2 min): 23520 and 22950 and 21920 and 24690 | P-IkB Subtract reagent background ([2]; MG132, TNF 2 min): 8120 and 6950 and 6380 and 5350 | P-IkB Average ([2]; MG132, TNF 2 min): 6700 | P-IkB Raw data ([2]; MG132, TNF 4 min): 23590 and 23010 and 22240 and 23600 | P-IkB Subtract reagent background ([2]; MG132, TNF 4 min): 7030 and 7020 and 6440 and 5670 | P-IkB Average ([2]; MG132, TNF 4 min): 6540 | P-IkB Raw data ([2]; MG132, TNF 6 min): 26150 and 25190 and 24160 and 26140 | P-IkB Raw data ([2]; MG132, TNF 8 min): 31970 and 30150 and 26560 and 32480 | P-IkB Subtract reagent background ([2]; MG132, TNF 8 min): 15910 and 15400 and 13580 and 9990 | P-IkB Average ([2]; MG132, TNF 8 min): 13720 | P-IkB Raw data ([2]; MG132, TNF 10 min): 38930 and 36060 and 31570 and 39590 | P-IkB Subtract reagent background ([2]; MG132, TNF 10 min): 23020 and 22360 and 19490 and 15000 | P-IkB Average ([2]; MG132, TNF 10 min): 19968 | P-IkB Raw data ([2]; MG132, TNF 12 min): 47120 and 43420 and 37410 and 48430 | P-IkB Subtract reagent background ([2]; MG132, TNF 12 min): 31860 and 30550 and 26850 and 20840 | P-IkB Average ([2]; MG132, TNF 12 min): 27525 | P-IkB Raw data ([2]; MG132, TNF 15 min): 56120 and 51230 and 43530 and 56550 | P-IkB Subtract reagent background ([2]; MG132, TNF 15 min): 39980 and 39550 and 34660 and 26960 | P-IkB Average ([2]; MG132, TNF 15 min): 35288 | P-IkB Raw data ([2]; MG132, TNF 30 min): 63690 and 60630 and 51570 and 63760 | P-IkB Subtract reagent background ([2]; MG132, TNF 30 min): 47190 and 47120 and 44060 and 35000 | P-IkB Average ([2]; MG132, TNF 30 min): 43343 | TNFα-induced degradation of IκBα ([1]; MCF-7 cells, 20 µM 1 h pretreatment, TNFα 50 ng per ml): inhibited | Total IkB Raw data ([1]; MG132, TNF 0 min): 86990 and 84090 and 85790 and 87340 | Total IkB Subtract reagent background ([1]; MG132, TNF 0 min): 70533 and 70183 and 67283 and 68983 | Total IkB Average ([1]; MG132, TNF 0 min): 69245 | Total IkB Raw data ([1]; MG132, TNF 2 min): 89610 and 87100 and 86710 and 88460 | Total IkB Subtract reagent background ([1]; MG132, TNF 2 min): 71653 and 72803 and 70293 and 69903 | Total IkB Average ([1]; MG132, TNF 2 min): 71163 | Total IkB Raw data ([1]; MG132, TNF 4 min): 87350 and 84610 and 87580 and 85650 | Total IkB Subtract reagent background ([1]; MG132, TNF 4 min): 68843 and 70543 and 67803 and 70773 | Total IkB Average ([1]; MG132, TNF 4 min): 69490 | Total IkB Raw data ([1]; MG132, TNF 6 min): 86900 and 82270 and 84580 and 89030 | Total IkB Subtract reagent background ([1]; MG132, TNF 6 min): 72223 and 70093 and 65463 and 67773 | Total IkB Average ([1]; MG132, TNF 6 min): 68888 | Total IkB Raw data ([1]; MG132, TNF 8 min): 86550 and 79990 and 82380 and 88200 | Total IkB Subtract reagent background ([1]; MG132, TNF 8 min): 71393 and 69743 and 63183 and 65573 | Total IkB Average ([1]; MG132, TNF 8 min): 67473 | Total IkB Raw data ([1]; MG132, TNF 10 min): 86190 and 79560 and 78070 and 90680 | Total IkB Subtract reagent background ([1]; MG132, TNF 10 min): 73873 and 69383 and 62753 and 61263 | Total IkB Average ([1]; MG132, TNF 10 min): 66818 | Total IkB Raw data ([1]; MG132, TNF 12 min): 85440 and 78280 and 77940 and 85890 | Total IkB Subtract reagent background ([1]; MG132, TNF 12 min): 69083 and 68633 and 61473 and 61133 | Total IkB Average ([1]; MG132, TNF 12 min): 65080 | Total IkB Raw data ([1]; MG132, TNF 15 min): 85380 and 79290 and 77150 and 87460 | Total IkB Subtract reagent background ([1]; MG132, TNF 15 min): 70653 and 68573 and 62483 and 60343 | Total IkB Average ([1]; MG132, TNF 15 min): 65513 | Total IkB Raw data ([1]; MG132, TNF 30 min): 74090 and 69470 and 69970 and 74150 | Total IkB Subtract reagent background ([1]; MG132, TNF 30 min): 57343 and 57283 and 52663 and 53163 | Total IkB Average ([1]; MG132, TNF 30 min): 55113
